Numbers after ± are expanded uncertainties.
Assays:
[1] = 298.15 K; 101 kPa; Liquid; Vibrating tube method
[2] = refractive index (Na D-line) (dimensionless); details: 298.15 K; 101 kPa; Liquid; Standard Abbe refractometry

Structure (SMILES) | mass density [1] | refractive index [2]
CCCCCCC [heptane] | 679.6 ± 0.3 kg/m3 | 1.38529 ± 0.00037
CCO [ethanol] | 785.9 ± 0.2 kg/m3 | 1.35936 ± 0.00037
CO [methanol] | 786.9 ± 0.2 kg/m3 | 1.32636 ± 0.00037
CCCCCC [hexane] | 655.2 ± 0.3 kg/m3 | 1.37241 ± 0.00037
CCCC[N+](C)(C)C.O=S(=O)([N-]S(=O)(=O)C(F)(F)F)C(F)(F)F [butyltrimethylammonium bis(trifluoromethylsulfonyl)imide] | 1393 ± 0.2 kg/m3 | 1.40806 ± 0.00031
CCCC[N+](C)(CCCC)CCCC.O=S(=O)([N-]S(=O)(=O)C(F)(F)F)C(F)(F)F [tributylmethylammonium bis((trifluoromethyl)sulfonyl)imide] | 1261.3 ± 0.2 kg/m3 | 1.42614 ± 0.00032

Reference: the NIST ThermoML archive (doi:10.1016/j.jct.2013.08.023)
